For two compounds, solubility results are on record in patent publication EP2283824B1, “Compositions and formulations based on swellable matrices for sustained release of poorly soluble drugs such as clarithromycin” (Special Product's Line S.p.A., priority 2009, dated 2011).

Data set [1] in a line: Approximate solubility in water at different pH values.
The nature of data set [2]: physchem.

Values after ≈ are worked out from the molar mass of the structure shown.

By solubility is commonly meant the concentration that dissolves in the medium under given conditions. Low readings indicate a poorly soluble substance, high ones a readily soluble substance.

Turning to `CC[C@H]1OC(=O)[C@H](C)[C@@H](O[C@H]2C[C@@](C)(OC)[C@@H](O)[C@H](C)O2)[C@H](C)[C@@H](O[C@@H]2O[C@H](C)C[C@H](N(C)C)[C@H]2O)[C@](C)(OC)C[C@@H](C)C(=O)[C@H](C)[C@@H](O)[C@]1(C)O` [clarithromycin], the solubility in data set [1] (pH 1, simulated gastric fluid) is 26100 µg/mL (≈ 34.9 mM); in data set [1] (pH 4.5, aqueous buffer) it was 3900 µg/mL (≈ 5.21 mM); in data set [1] (pH 6, aqueous buffer) it was 3300 µg/mL (≈ 4.41 mM).

With `CC[C@H]1OC(=O)[C@H](C)[C@@H](O[C@H]2C[C@@](C)(OC)[C@@H](O)[C@H](C)O2)[C@H](C)[C@@H](O[C@@H]2O[C@H](C)C[C@H](N(C)C)[C@H]2O)[C@](C)(O)C[C@](C)(F)C(=O)[C@H](C)[C@@H](O)[C@]1(C)O` [flurithromycin], the solubility in data set [2] (pH 1, simulated gastric fluid) is 22000 µg/mL (≈ 29.3 mM); in data set [2] (pH 2, simulated gastric fluid) it was 11800 µg/mL (≈ 15.7 mM); in data set [2] (pH 4.5, aqueous buffer), 4200 µg/mL (≈ 5.59 mM); in data set [2] (pH 6, aqueous buffer), 300 µg/mL (≈ 0.399 mM).
